Measurements from US4994476A, “Dihydropyridin-3,5-dicarboxylates incorporating aryloxypropanolamine moieties” (Bristol-Myers Company, priority 1985, dated 1991).
Counter-ions that a name gives are not always drawn. Like-named read-outs stand apart in the source and are kept apart here.

Legend:
[1] = system: mean arterial blood pressure, ganglion-blocked, angiotensin-II supported rat; assay: Vasodilation in the angiotensin-supported ganglion-blocked rat; assay type: in vivo
Description: (§1) Evaluation of these pharmacological properties was affected by means of both in vitro and in vivo biological screens. In vitro screening included calcium activity in various smooth muscle systems such as rat dorsal aorta, portal vein, and trachea; effects on blood platelets, β-binding affinities which were determined in rat heart and lung. […] The in vivo testing included vasodilating results in the ganglion-blocked, angiotensin-II supported rat and antihypertensive screening in the spontaneous hypertensive rat (SHR) or DOCA salt rats.

rat dorsal aorta = molecular target: T1, rat dorsal aorta (Rattus norvegicus, UniProt P22002); assay: Calcium blockade in rat dorsal aorta (calcium activity in smooth muscle); assay type: cell-based; conditions: for Kb: negative logarithm of molar concentration giving dose ratio of 2, read-out: Calcium (pA2) (converted); for Calcium (pA2): negative logarithm of molar concentration giving dose ratio of 2
T1 construct: from tissue; host or cells: rat dorsal aorta (smooth muscle)
Description: as §1

β-Receptor = molecular target: T2, β-Receptor (Rattus norvegicus, UniProt P18090); assay: β-Receptor binding in animal heart tissue
T2 construct: from tissue; host or cells: rat heart
Description: as §1

[2] = Rattus norvegicus, 0.5 h, 30 minutes after dosing, read-out: Vasodilation, % reduction in mean arterial blood pressure
[3] = animal heart tissue, read-out: β Binding (IC50)

T2 sequence (P18090 whole entry): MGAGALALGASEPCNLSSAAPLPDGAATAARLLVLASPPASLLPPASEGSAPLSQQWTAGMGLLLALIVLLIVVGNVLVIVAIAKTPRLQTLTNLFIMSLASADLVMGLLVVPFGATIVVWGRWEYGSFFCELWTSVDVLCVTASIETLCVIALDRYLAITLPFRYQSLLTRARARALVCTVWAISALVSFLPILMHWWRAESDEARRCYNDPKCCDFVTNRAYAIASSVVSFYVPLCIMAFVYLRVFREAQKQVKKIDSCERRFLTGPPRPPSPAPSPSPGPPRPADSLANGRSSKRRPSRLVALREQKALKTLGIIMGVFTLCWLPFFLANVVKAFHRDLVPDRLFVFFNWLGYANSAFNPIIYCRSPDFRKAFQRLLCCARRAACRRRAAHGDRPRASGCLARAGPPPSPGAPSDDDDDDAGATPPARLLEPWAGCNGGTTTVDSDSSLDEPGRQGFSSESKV
T1 sequence (P22002 whole entry): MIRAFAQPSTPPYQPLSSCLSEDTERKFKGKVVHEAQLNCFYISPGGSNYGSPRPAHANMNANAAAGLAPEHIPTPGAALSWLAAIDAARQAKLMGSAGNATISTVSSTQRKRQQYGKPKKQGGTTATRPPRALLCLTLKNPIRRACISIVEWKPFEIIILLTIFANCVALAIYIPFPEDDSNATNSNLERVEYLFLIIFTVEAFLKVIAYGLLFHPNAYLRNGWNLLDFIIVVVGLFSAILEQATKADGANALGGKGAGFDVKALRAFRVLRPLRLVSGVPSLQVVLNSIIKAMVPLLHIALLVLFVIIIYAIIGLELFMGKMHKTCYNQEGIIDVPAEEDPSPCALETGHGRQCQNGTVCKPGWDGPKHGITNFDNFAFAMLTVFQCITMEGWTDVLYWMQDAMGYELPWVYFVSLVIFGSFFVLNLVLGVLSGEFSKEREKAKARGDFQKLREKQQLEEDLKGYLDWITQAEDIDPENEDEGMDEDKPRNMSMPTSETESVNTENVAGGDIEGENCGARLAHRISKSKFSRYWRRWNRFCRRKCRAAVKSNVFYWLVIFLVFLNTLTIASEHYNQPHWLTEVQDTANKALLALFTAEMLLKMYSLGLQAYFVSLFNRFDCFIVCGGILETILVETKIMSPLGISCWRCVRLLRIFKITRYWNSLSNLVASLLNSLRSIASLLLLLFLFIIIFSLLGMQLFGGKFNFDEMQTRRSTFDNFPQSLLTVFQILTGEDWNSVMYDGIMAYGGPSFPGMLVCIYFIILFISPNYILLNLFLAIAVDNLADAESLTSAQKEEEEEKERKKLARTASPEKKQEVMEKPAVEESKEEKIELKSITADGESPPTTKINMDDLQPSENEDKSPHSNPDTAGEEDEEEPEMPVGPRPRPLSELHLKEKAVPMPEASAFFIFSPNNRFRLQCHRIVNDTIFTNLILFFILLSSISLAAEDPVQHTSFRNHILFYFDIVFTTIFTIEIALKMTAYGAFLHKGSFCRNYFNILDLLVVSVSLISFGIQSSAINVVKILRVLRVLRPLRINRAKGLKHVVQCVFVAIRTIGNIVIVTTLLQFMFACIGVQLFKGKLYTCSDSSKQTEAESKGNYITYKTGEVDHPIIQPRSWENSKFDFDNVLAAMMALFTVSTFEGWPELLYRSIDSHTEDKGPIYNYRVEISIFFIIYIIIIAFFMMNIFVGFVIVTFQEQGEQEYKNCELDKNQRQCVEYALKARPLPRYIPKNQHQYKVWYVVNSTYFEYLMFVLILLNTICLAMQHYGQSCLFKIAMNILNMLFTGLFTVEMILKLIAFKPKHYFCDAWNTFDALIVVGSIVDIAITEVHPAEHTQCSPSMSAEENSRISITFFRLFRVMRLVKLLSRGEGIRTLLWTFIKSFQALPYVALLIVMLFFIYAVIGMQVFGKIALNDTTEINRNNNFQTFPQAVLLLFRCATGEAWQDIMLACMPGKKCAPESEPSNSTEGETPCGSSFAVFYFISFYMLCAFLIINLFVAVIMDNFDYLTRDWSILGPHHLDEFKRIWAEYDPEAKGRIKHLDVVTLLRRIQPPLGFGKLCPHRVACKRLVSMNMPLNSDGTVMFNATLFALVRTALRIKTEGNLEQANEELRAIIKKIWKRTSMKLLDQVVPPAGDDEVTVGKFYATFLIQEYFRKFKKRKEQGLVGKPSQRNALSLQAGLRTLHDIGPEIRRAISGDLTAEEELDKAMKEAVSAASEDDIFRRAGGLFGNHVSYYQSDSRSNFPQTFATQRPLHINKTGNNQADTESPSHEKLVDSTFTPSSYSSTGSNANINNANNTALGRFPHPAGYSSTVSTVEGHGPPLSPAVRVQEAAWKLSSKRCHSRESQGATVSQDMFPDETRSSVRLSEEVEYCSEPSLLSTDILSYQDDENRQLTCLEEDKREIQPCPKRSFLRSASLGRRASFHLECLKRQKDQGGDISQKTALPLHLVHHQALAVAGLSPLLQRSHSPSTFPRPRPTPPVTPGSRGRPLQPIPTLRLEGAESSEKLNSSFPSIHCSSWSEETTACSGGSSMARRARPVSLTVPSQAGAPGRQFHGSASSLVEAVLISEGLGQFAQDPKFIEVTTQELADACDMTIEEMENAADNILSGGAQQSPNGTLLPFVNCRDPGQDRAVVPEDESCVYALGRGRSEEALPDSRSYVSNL
T1 sequence (P54290 25-944 partner limits assumed): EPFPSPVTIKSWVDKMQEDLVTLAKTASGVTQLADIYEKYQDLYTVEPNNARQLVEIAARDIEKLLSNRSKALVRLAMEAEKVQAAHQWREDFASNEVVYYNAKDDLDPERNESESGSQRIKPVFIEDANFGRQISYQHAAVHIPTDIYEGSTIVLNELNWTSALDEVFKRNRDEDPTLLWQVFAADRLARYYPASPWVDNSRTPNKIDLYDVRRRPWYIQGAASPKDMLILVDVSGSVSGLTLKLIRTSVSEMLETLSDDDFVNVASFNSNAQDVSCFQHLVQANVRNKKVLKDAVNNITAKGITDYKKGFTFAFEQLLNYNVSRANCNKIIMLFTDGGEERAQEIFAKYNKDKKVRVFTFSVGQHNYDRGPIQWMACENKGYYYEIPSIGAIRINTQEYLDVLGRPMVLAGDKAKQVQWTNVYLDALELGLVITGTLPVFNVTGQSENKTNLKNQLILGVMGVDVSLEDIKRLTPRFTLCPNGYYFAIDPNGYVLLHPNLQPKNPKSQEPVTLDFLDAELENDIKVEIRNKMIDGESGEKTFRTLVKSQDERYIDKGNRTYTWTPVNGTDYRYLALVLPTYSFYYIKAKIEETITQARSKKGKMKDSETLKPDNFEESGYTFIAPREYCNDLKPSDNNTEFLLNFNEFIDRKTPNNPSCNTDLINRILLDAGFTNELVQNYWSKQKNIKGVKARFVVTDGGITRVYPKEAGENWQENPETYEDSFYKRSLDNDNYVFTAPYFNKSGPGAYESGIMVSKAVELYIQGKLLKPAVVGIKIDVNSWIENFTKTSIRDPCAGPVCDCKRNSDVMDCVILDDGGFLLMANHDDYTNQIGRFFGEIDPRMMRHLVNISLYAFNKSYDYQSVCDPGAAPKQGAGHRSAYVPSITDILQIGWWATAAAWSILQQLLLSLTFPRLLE
T1 sequence (P54290 945-1091 partner limits assumed): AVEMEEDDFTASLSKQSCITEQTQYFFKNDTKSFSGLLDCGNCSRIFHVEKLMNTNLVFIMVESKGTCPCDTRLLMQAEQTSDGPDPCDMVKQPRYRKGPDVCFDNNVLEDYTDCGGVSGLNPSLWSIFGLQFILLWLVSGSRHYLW

| Kb (rat dorsal aorta) | IC50 (β-Receptor; [3]) | SMILES | inhibition in vivo at 1 mg/kg [1, 2] | other results |
| --- | --- | --- | --- | --- |
| 12.6 nM | 100 nM | CCOC(=O)C1=C(C)NC(C)=C(C(=O)OCCc2ccc(OCC(O)CNC(C)C)cc2)C1c1cccc([N+](=O)[O-])c1 (stereo not drawn) [Example 54, Ethyl [2-[4-[3-[2-Hydroxy.(1-methylethyl)-amino]propoxy]phenyl]ethyl]1,4-Dihydro-2,6-dimethyl-4-(3-nitrophenyl)-3,5-pyridine dicarboxylate Hydrochloride Hydrate] | 57% | – |
| 6.31 nM | 420 nM | CCC1=C(C(=O)OCC(C)(C)NCC(O)COc2ccc(CC(N)=O)cc2)C(c2cccc([N+](=O)[O-])c2)C(C(=O)OC)=C(C)N1 (stereo not drawn) [Example 45, [2-[3-[4-(Aminocarbonyl)methyl]phenoxy]-2-hydroxypropyl]amino]-2,2-dimethylethyl]^3 Methyl^5 2-Ethyl-1,4-dihydro-6-methyl-4-(3-nitrophenyl)-3,5-pyridinedicarboxylate Hemihydrate] | 33% | – |
| – | – | COC(=O)C1=C(C)NC(C)=C(C(=O)OCCCNCC(O)COc2cccc3c2CCCC3=O)C1c1cccc([N+](=O)[O-])c1 (stereo not drawn) [Example 63] | – | Calcium (pA2) (rat dorsal aorta): 8.8 |
| 10 to 15.8 nM | 10 nM | COC(=O)C1=C(C)NC(C)=C(C(=O)OCCCNCC(O)COc2ccccc2C)C1c1cccc([N+](=O)[O-])c1 (stereo not drawn) [Example 44, Methyl [3-[[3-(2-Methylphenoxy)-2-hydroxypropyl]-amino]propyl]1,4-Dihydro-2,6-dimethyl-4-(3-nitrophenyl)-3,5-pyridinedicarboxylate Hydrochloride] | 28% | – |
| – | – | COC(=O)C1=C(C)NC(C)=C(C(=O)OCCCNCC(O)COc2cccc3c2C[C@H](O)[C@H](O)C3)C1c1cccc([N+](=O)[O-])c1 (relative stereo) [Example 64] | – | Calcium (pA2) (rat dorsal aorta): 7.3 |
| – | – | C=CCc1ccccc1OCC(O)CNCCCOC(=O)C1=C(C)NC(C)=C(C(=O)OC)C1c1cccc([N+](=O)[O-])c1 (stereo not drawn) [Example 62] | – | Calcium (pA2) (rat dorsal aorta): 7.4 |
| 6.31 nM | – | CCOC(=O)C1=C(C)NC(C)=C(C(=O)OCCCNCC(O)COc2ccccc2C#N)C1c1cccc([N+](=O)[O-])c1 (stereo not drawn) [Example 43] | – | – |
| – | 1000 nM | CC(=O)Nc1ccc(OCC(O)CNC(C)C)cc1 (stereo not drawn) [Practolol, reference compound] | – | – |
| – | – | COC(=O)C1=C(C)NC(C)=C(C(=O)OCCCNCC(O)COc2ccccc2C2CCCCC2)C1c1cccc([N+](=O)[O-])c1 (stereo not drawn) [Example 61] | – | Calcium (pA2) (rat dorsal aorta): 7.6 |
| 3.98 nM | – | COC(=O)C1=C(C)NC(C)=C(C(=O)OCCCNCC(O)COc2ccc(F)cc2C)C1c1cccc([N+](=O)[O-])c1 (stereo not drawn) [Example 42] | 39% | – |
| 12.6 nM | 6000 nM | CCC1=C(C(=O)OCCNCC(O)COc2ccccc2C#N)C(c2cccc([N+](=O)[O-])c2)C(C(=O)OC)=C(C)N1 (stereo not drawn) [Example 34] | 17% | – |
| 10 nM | 620 nM | CCOC(=O)C1=C(C)NC(C)=C(C(=O)OCCCC(=O)Nc2ccc(OCC(O)CNC(C)C)cc2)C1c1cccc([N+](=O)[O-])c1 (stereo not drawn) [Example 56, Ethyl [3-[[[4-[2-Hydroxy-3-[(1-methylethyl)amino]-propoxy]phenyl]amino]carbonyl]propyl]1,4-Dihydro-2,6-dimethyl-4-(3-nitrophenyl)-3,5-pyridinedicarboxylateHydrate] | – | – |
| – | 300 nM | COC(=O)C1=C(C)NC(c2ccccc2)=C(C(=O)OCC(C)(C)NCC(O)COc2ccccc2C#N)C1c1cccc([N+](=O)[O-])c1 (stereo not drawn) [Example 32] | – | inhibition in vivo at 10 mg/kg ([1]; Rattus norvegicus, 0.5 h, 30 minutes after dosing, at 10 mg/kg, read-out: Vasodilation, % reduction in mean arterial blood pressure): 22% |
| 251 nM | – | COC(=O)C1=C(C)NC(C)=C(C(=O)OCCNC(=S)NCCNCC(O)COc2ccccc2C)C1c1cccc([N+](=O)[O-])c1 (stereo not drawn) [Example 46] | 22% | – |
| – | 800 nM | COC(=O)C1=C(C)NC(C(C)C)=C(C(=O)OCC(C)(C)NCC(O)COc2ccccc2C#N)C1c1cccc([N+](=O)[O-])c1 (stereo not drawn) [Example 31] | 9% | – |
| – | – | CCC1=C(C(=O)OCC(C)(C)NCC(O)COc2ccccc2C)C(c2cccc([N+](=O)[O-])c2)C(C(=O)OC)=C(C)N1 (stereo not drawn) [Example 37] | 58% | – |
| 50.1 nM | > 1000 nM | CCC1=C(C(=O)OCC(C)(C)NC(=O)Cc2ccc(OCC(O)CNC(C)C)cc2)C(c2cccc([N+](=O)[O-])c2)C(C(=O)OC)=C(C)N1 (stereo not drawn) [Example 57, [2-[4-[2-Hydroxy-3-[(1-methylethyl)amino]propoxy]-phenyl]methyl]carbonyI]amino]-2,2-dimethylethyl]^3 Methyl^5 2-Ethyl-1,4-dihydro-6-methyl-4-(3-nitrophenyl)-3,5-pyridinedicarboxylate Hemihydrate] | 11% | – |
| 6.31 nM | – | COC(=O)C1=C(C)NC(C)=C(C(=O)OCCCNCC(O)COc2cccc(C)c2)C1c1cccc([N+](=O)[O-])c1 (stereo not drawn) [Example 41] | 28% | – |
| – | 180 nM | CCC1=C(C(=O)OCC(C)(C)NCC(O)COc2ccccc2Br)C(c2cccc([N+](=O)[O-])c2)C(C(=O)OC)=C(C)N1 (stereo not drawn) [Example 38] | 55% | – |
| – | – | COC(=O)C1=C(C)NC(C)=C(C(=O)OCCCNCC(O)COc2cccc3ccccc23)C1c1cccc([N+](=O)[O-])c1 (stereo not drawn) [Example 59] | – | Calcium (pA2) (rat dorsal aorta): 7.3 |
| – | – | COC(=O)C1=C(C)NC(C)=C(C(=O)OC)C1c1ccccc1[N+](=O)[O-] [Nifedipine, reference compound] | – | inhibition in vivo at 0.1 mg/kg ([1]; Rattus norvegicus, 0.5 h, 30 minutes after dosing, at 0.1 mg/kg, read-out: Vasodilation, % reduction in mean arterial blood pressure): 23%; IC50 (β-Receptor): > 1000 nM |
| 6.31 nM | 20 nM | COC(=O)C1=C(C)NC(C)=C(C(=O)OCC(C)(C)NCC(O)COc2ccccc2C#N)C1c1cccc([N+](=O)[O-])c1 (stereo not drawn) [Example 29] | 52% | – |
| – | 70 nM | COC(=O)C1=C(C)NC(c2cccs2)=C(C(=O)OCC(C)(C)NCC(O)COc2ccccc2C#N)C1c1cccc([N+](=O)[O-])c1 (stereo not drawn) [Example 33] | 12% | – |
| – | 200 nM | CCC1=C(C(=O)OCCCNCC(O)COc2ccccc2C#N)C(c2cccc([N+](=O)[O-])c2)C(C(=O)OC)=C(C)N1 (stereo not drawn) [Example 35] | 28% | – |
| 3.98 nM | 200 nM | CCC1=C(C(=O)OCC(C)(C)NCC(O)COc2ccccc2C#N)C(c2cccc([N+](=O)[O-])c2)C(C(=O)OC)=C(C)N1 (stereo not drawn) [Example 30] | 50% | – |
| 1.58 nM | 400 nM | CCC1=C(C(=O)OCC(C)(C)NCC(O)COc2ccc(CCOC)cc2)C(c2cccc([N+](=O)[O-])c2)C(C(=O)OC)=C(C)N1 (stereo not drawn) [Example 39] | 54% | – |
| – | – | COC(=O)C1=C(C)NC(C)=C(C(=O)OCCCNCC(O)COc2ccccc2C(F)(F)F)C1c1cccc([N+](=O)[O-])c1 (stereo not drawn) [Example 60] | – | Calcium (pA2) (rat dorsal aorta): 7.2 |
| 20 nM | – | CCOC(=O)C1=C(C)NC(C)=C(C(=O)OCCCNCC(O)COc2ccccc2C)C1c1cccc([N+](=O)[O-])c1 (stereo not drawn) [Example 40] | 36% | – |

| SMILES | Kb (rat dorsal aorta) | IC50 (β-Receptor; [3]) | inhibition in vivo at 1 mg/kg [1, 2] | other results |
| --- | --- | --- | --- | --- |
| CCOC(=O)C1=C(C)NC(C)=C(C(=O)OCCc2ccc(OCC(O)CNC(C)(C)C)cc2)C1c1cccc([N+](=O)[O-])c1 (stereo not drawn) [Example 55, Ethyl [2-[4-[3-[(1,1-dimethylethyl)amino]-2-hydroxypropoxy]phenyl]ethyl]1,4-Dihydro-2,6-dimethyl-4-(3-nitrophenyl)-3,5-pyridinedicarboxylate Hydrochloride Hemihydrate] | 12.6 nM | – | – | Lethality in vasodilation test ([1]; 1.0 mg/kg): Lethal at 1.0 mg/kg |
